In patent US12357650B2, “Methods and compositions for cancer therapies that include delivery of halogenated thymidines and thymidine phosphorlylase inhibitors in combination with radiation” (Shuttle Pharmaceuticals, Inc., priority 2017, dated 2025):
Several values for one entry are separate records, joined by “and”; a condition that tells them apart may be missing. Equal values may be shown once. Read-outs that look alike come from different tables or passages of the source.

Assay: Pharmacokinetic profile of IUdR (100 mg/kg) with and without Tipiracil in rats following single oral administration
Format: in vivo, male Sprague-Dawley rats
Protocol: The purpose of this study was to determine the pharmacokinetics parameters of IUdR in male Sprague-Dawley rats following single oral (PO) administration the IUdR (i.e., Compound A) and Tipiracil (i.e., Compound B).
A control formulation was prepared where Compound A was dissolved in 5% DMSO+95% PBS to yield a final concentration of 10 mg/mL for oral administration. The prepared formulation was white suspension (pH˜7).
A second formulation was prepared where Compound A and Compound B were dissolved in 5% DMSO+95% PBS to yield a final concentration of 10 mg/mL (Compound A) and 0.79 mg/mL (Compound B) for oral administration. The prepared formulation was white suspension (pH˜7).
Animal Acquisition and Assignment to Study. A total of 8 male experimental Sprague-Dawley Rats were transferred from stock colony, and 6 animals were placed on study.
Dose Administration. The test article was administered via a single oral administration.
Sample Collection and Bioanalysis. Blood samples (approximately 200 μL/sample) were collected via jugular vein at Pre-dose and Post-dose (5 min, 15 min, 30 min, 1 h, 2 h, 4 h, 6 h, 8 h and 24 h). Blood samples were placed into tubes containing K2EDTA and centrifuged conditions at 8000 rpm for 6 minutes at 2-8° C. to separate plasma from the samples. Following centrifugation, the resulting plasma were transferred to clean tubes and stored frozen at −80° C. pending bioanalysis.
Pharmacokinetic Analysis. The PK analysis and interpretation of the results were conducted by Medicilon Preclinical Research (Shanghai) LLC. A non-compartmental module of WinNonlin® Professional was used to calculate parameters. Any BLQs (LLOQ=10.0 ng/mL for Compound A) were omitted when calculate the PK parameters.
Clinical Observations. No abnormal observations were noted.

[1] = male, Sprague-Dawley, rat, plasma, oral, 100 mg/kg, PO-100 mg/kg Compound A alone or + 7.9 mg/kg Compound B, group mean, read-out: Plasma Concentration of Compound A, Mean
[2] = male, Sprague-Dawley, rat, plasma, oral, 100 mg/kg, PO-100 mg/kg Compound A alone or + 7.9 mg/kg Compound B, individual animals, LLOQ 10 ng/mL, read-out: Plasma Concentration of Compound A
[3] = single oral dose, Example 1, sub-heading prints PO-20 (Compound A) alone or + 7.9 (Compound B) mg/kg, individual animals

Compound: O=c1[nH]c(=O)n([C@H]2C[C@H](O)[C@@H](CO)O2)cc1I [Compound A, 5-iodo-2′-deoxyuridine]
- Plasma Concentration of Compound A (PO-100 mg/kg Compound A alone or + 7.9 mg/kg Compound B, 1 hr, individual animals, LLOQ 10 ng/mL): 596.55 ng/mL and 772.49 ng/mL
- Plasma Concentration of Compound A (PO-100 mg/kg Compound A alone or + 7.9 mg/kg Compound B, 2 hr, individual animals, LLOQ 10 ng/mL): 645.17 ng/mL and 943.79 ng/mL
- Plasma Concentration of Compound A (PO-100 mg/kg Compound A alone or + 7.9 mg/kg Compound B, 4 hr, individual animals, LLOQ 10 ng/mL): 316.82 ng/mL and 441.37 ng/mL
- Plasma Concentration of Compound A (PO-100 mg/kg Compound A alone or + 7.9 mg/kg Compound B, 6 hr, individual animals, LLOQ 10 ng/mL): BLQ and 56.61 ng/mL
- Plasma Concentration of Compound A (PO-100 mg/kg Compound A alone or + 7.9 mg/kg Compound B, 8 hr, individual animals, LLOQ 10 ng/mL): BLQ
- Plasma Concentration of Compound A (PO-100 mg/kg Compound A alone or + 7.9 mg/kg Compound B, 24 hr, individual animals, LLOQ 10 ng/mL): BLQ
- AUC(0-inf) (male, Sprague-Dawley, rat, plasma, 100 mg/kg, single oral dose, Example 1, sub-heading prints PO-20 (Compound A) alone or + 7.9 (Compound B) mg/kg, individual animals): 2630 ng·h/mL
- half-life (male, Sprague-Dawley, rat, plasma, 100 mg/kg, single oral dose, Example 1, sub-heading prints PO-20 (Compound A) alone or + 7.9 (Compound B) mg/kg, individual animals, read-out: t1/2 of Compound A (converted)): 0.89 h
- concentration at 0.083 hr [1]: 184 ng/mL
- concentration at 0.083 hr [2]: 191 ng/mL
- concentration at 0.25 hr [1]: 552 ng/mL
- concentration at 0.25 hr [2]: 489 ng/mL
- concentration at 0.5 hr [1]: 689 ng/mL
- concentration at 0.5 hr [2]: 627 ng/mL
- concentration at 1 hr (male, Sprague-Dawley, rat, plasma, oral, 100 mg/kg, PO-100 mg/kg Compound A alone or + 7.9 mg/kg Compound B, 1 hr, group mean, read-out: Plasma Concentration of Compound A, Mean): 642 ng/mL
- concentration at 1 hr (male, Sprague-Dawley, rat, plasma, oral, 100 mg/kg, PO-100 mg/kg Compound A alone or + 7.9 mg/kg Compound B, 1 hr, individual animals, LLOQ 10 ng/mL, read-out: Plasma Concentration of Compound A): 556 ng/mL
- concentration at 2 hr (male, Sprague-Dawley, rat, plasma, oral, 100 mg/kg, PO-100 mg/kg Compound A alone or + 7.9 mg/kg Compound B, 2 hr, group mean, read-out: Plasma Concentration of Compound A, Mean): 788 ng/mL
- concentration at 2 hr (male, Sprague-Dawley, rat, plasma, oral, 100 mg/kg, PO-100 mg/kg Compound A alone or + 7.9 mg/kg Compound B, 2 hr, individual animals, LLOQ 10 ng/mL, read-out: Plasma Concentration of Compound A): 774 ng/mL
- concentration at 4 hr (male, Sprague-Dawley, rat, plasma, oral, 100 mg/kg, PO-100 mg/kg Compound A alone or + 7.9 mg/kg Compound B, 4 hr, group mean, read-out: Plasma Concentration of Compound A, Mean): 345 ng/mL
- concentration at 4 hr (male, Sprague-Dawley, rat, plasma, oral, 100 mg/kg, PO-100 mg/kg Compound A alone or + 7.9 mg/kg Compound B, 4 hr, individual animals, LLOQ 10 ng/mL, read-out: Plasma Concentration of Compound A): 276 ng/mL
- concentration at 6 hr (male, Sprague-Dawley, rat, plasma, oral, 100 mg/kg, PO-100 mg/kg Compound A alone or + 7.9 mg/kg Compound B, 6 hr, group mean (BLQ omitted), read-out: Plasma Concentration of Compound A, Mean): 55.3 ng/mL
- concentration at 6 hr (male, Sprague-Dawley, rat, plasma, oral, 100 mg/kg, PO-100 mg/kg Compound A alone or + 7.9 mg/kg Compound B, 6 hr, individual animals, LLOQ 10 ng/mL, read-out: Plasma Concentration of Compound A): 54 ng/mL
- concentration at 8 hr (male, Sprague-Dawley, rat, plasma, oral, 100 mg/kg, PO-100 mg/kg Compound A alone or + 7.9 mg/kg Compound B, 8 hr, individual animals, LLOQ 10 ng/mL): 14.1 ng/mL
- AUC(0-t) (male, Sprague-Dawley, rat, plasma, po, 100 mg/kg, oral administration, Example 1 (100 mg/kg IUdR, ± 7.9 mg/kg Tipiracil), comparison table, mean, read-out: AUC(0-t) of Compound A): 2720 ng·h/mL
- Cmax (male, Sprague-Dawley, rat, plasma, po, 100 mg/kg, oral administration, Example 1 (100 mg/kg IUdR, ± 7.9 mg/kg Tipiracil), comparison table, mean, read-out: Cmax of Compound A): 824 ng/mL
- Tmax (male, Sprague-Dawley, rat, plasma, po, 100 mg/kg, single oral dose, Example 1, sub-heading prints PO-20 (Compound A) alone or + 7.9 (Compound B) mg/kg, group mean): 1.5 h
- Cmax (male, Sprague-Dawley, rat, plasma, po, 100 mg/kg, single oral dose, Example 1, sub-heading prints PO-20 (Compound A) alone or + 7.9 (Compound B) mg/kg, group mean, read-out: Cmax of Compound A, Mean): 824 ng/mL
- AUC(0-t) (male, Sprague-Dawley, rat, plasma, po, 100 mg/kg, single oral dose, Example 1, sub-heading prints PO-20 (Compound A) alone or + 7.9 (Compound B) mg/kg, individual animals): 3320 ng·h/mL
- Cmax (male, Sprague-Dawley, rat, plasma, po, 100 mg/kg, single oral dose, Example 1, sub-heading prints PO-20 (Compound A) alone or + 7.9 (Compound B) mg/kg, individual animals, read-out: Cmax of Compound A): 944 ng/mL
- AUC(0-t) of Compound A [3]: 2214.79 ng·h/mL and 2609.22 ng·h/mL
- Cmax of Compound A [3]: 773.62 ng/mL and 755.39 ng/mL
- Tmax of Compound A [3]: 2.00 h
